Experimental findings from paper PMC8942850, “Boron clusters as broadband membrane carriers” (Nature, 2022) are described below.

Data set [1] has as its system adenocarcinoma human alveolar basal epithelial cells A549. Description: MTT viability with B12Br12^2− or R8. On the set-up: dose or concentration left out as unconfirmed. The settings on record: 3 h in HKR + 24 h medium, mean of five measurements. On the procedure: (§1) The incubation mixtures were replaced with DMEM + 10% FBS + 0.5 mg ml^–1 MTT. For the viability assays in the presence of B12Br12^2− or R8, HeLa, GT1-7, ARPE-19 and A549 cells were seeded the day before in 96-well plates at 6,000 cells per well. Cells were incubated with B12Br12^2− or R8 dissolved in HKR buffer for 3 h and, thereafter, incubated for 24 h with complete medium before incubating with complete medium and 0.5 mg ml^−1 MTT. For viability studies in the presence of MMAF, HeLa cells were incubated with MMAF and B12Br12^2− diluted in DMEM (without serum or antibiotics) for 3 h. Cells were washed with 0.1 mg ml^−1 heparin and further incubated for 21 h in complete medium and 2 h in complete medium containing 0.5 mg ml^−1 MTT. For all types of assays, after 2 h of incubation, the medium was carefully removed, and formazan crystals dissolved by addition of DMSO. The absorbance at 570 nm was measured with a plate reader (Tecan Infinite F200Pro) and the data normalized to the value of untreated cells (100% viability). Data were analysed with R (v. 4.0.3)[54].
(§2) Cells were incubated with 7 µM phalloidin-TRITC (red) in the absence (left) and presence of 50 µM ^AcR8 (middle) or 50 µM of B12Br12^2− cluster (right) in HKR buffer for 3 h, subsequently stained with Hoechst (blue), washed with DMEM without phenol red, and imaged by confocal fluorescence microscopy; bright-field images in insets. Micrographs from each cell line were processed independently, experiments were performed twice. e, MTT viability assay of the corresponding cell lines (HeLa, GT1-7, ARPE-19 and A549, from left to right) at different concentrations (0, 25, 75, 250, and 500 µM) of B12Br12^2− (black) or ^AcR8 (red); data are mean ± s.d. of five measurements. f, Confocal images of HeLa cells after incubation with 500 nM phalloidin-TRITC and different concentrations B12Br12^2−; the images correspond to those of Fig. 4 in the main text, but are shown with increased brightness to facilitate observation of the actin filaments. Representative images of two biological replicates. All scale bars are […], except for panel f (50 µm). Source data

The test system of a further data set is HeLa cells. Kind of data set: MTT viability with B12Br12^2− or R8. More on the design: dose or concentration left out as unconfirmed. To be noted: 3 h in HKR + 24 h medium, mean of five measurements. On the procedure:
as §1, §2

Data set [2] in a line: Carboxyfluorescein (CF) leakage assay, anionic vesicles. The settings on record: anionic liposomes DMPE/DPPG/CHOL 1/2/1, 13 µM phospholipids, 10 mM Tris, 140 mM NaCl, pH 7.4; CF fluorescence; Hill analysis; read-out: EC50 membrane-disrupting activity (CF leakage). On the procedure: A thin lipid film was prepared by evaporating a lipid solution with a stream of nitrogen and then dried in vacuo overnight. For the zwitterionic vesicles, 25 mg EYPC in 1 ml of CHCl3 was used, and for the anionic vesicles, DMPE/DPPG/CHOL (4.4/10.4/2.6 mg, 1/2/1 molar ratio) in a 1:1 mixture of CHCl3 and MeOH (1 ml) was used. […]
For leakage experiments with the lipid⊃CF vesicles, stock solutions (6 µl) were diluted with the respective buffer in a disposable plastic cuvette and gently stirred (total volume 2,000 µl, final lipid concentration 13 µM). CF fluorescence was monitored at λem = 517 nm (λex = 492 nm) as a function of time after addition of the respective activating or disrupting agent (cluster, WR7 or pyrenebutyrate) at 50 s, and Triton X-100 (24 µl 1.2% (wt/vol)) at 600 s, the latter to lyse the vesicles, for calibration. Fluorescence intensities were normalized to fractional emission intensity as I(t) = (It − I0)/(I∞ − I0), where I0 = It before disrupting agent addition and I∞ = It after Triton X-100 lysis. […]
Extended Data Fig. 1 Assays testing for stability vs leakage of the vesicles. a, Response of the HPTS/DPX assay towards a membrane-disrupting agent and chemical structures of the fluorescent dye HPTS and the quencher DPX. In this assay, large unilamellar vesicles are loaded with the HPTS/DPX probe/quencher pair, such that the fluorescence of HPTS is quenched. […]

The term EC50 denotes the concentration that produces a half-maximal response.

Take B12Br12^2−: the mean_viability in data set [1] (25 as printed) is on record as 106.289%; in data set [1] (75 as printed), 109.955%; with HeLa cells (25 as printed), 104.374%; in the data set with HeLa cells (75 as printed) it was 100.045%. Further, the EC50 in data set [2] stood at 960 ± 100 µM.
